target: T1, Menin MLL 4-43 (Homo sapiens, UniProt O00255); assay: Fluorescence polarization (FP) competition assay of the menin-MLL interaction; format: binding; settings: fluorescence polarization assay; read-out: Menin MLL 4-43 IC50
T1 sequence (O00255 1-610): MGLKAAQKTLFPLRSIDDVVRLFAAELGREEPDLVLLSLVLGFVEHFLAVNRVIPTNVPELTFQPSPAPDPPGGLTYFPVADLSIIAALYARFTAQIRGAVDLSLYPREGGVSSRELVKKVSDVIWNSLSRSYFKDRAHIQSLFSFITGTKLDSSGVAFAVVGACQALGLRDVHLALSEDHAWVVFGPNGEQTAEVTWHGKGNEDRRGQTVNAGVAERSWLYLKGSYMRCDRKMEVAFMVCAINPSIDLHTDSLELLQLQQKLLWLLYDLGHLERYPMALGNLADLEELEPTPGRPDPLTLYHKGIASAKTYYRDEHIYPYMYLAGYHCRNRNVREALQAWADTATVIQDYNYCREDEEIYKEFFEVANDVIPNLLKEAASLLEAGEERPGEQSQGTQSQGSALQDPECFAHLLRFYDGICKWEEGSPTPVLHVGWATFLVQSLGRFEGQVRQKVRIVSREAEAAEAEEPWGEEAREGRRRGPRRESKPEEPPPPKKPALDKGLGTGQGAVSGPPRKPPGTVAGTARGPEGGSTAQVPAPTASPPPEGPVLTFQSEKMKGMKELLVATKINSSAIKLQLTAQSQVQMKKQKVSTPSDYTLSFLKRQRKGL

SMILES	IC50
Cc1c(CN2CCC(Nc3ncnc4sc(CC(F)(F)F)cc34)CC2)ccc2c1cc(C#N)n2C[C@H](C)N1CCN(S(=O)(=O)NCC(F)F)CC1 [Compound 125]	0.05 to 0.25 µM
Cc1c(CN2CCC(Nc3nc(CF)nc4sc(CC(F)(F)F)cc34)CC2)ccc2c1cc(C#N)n2C[C@H](C)N1CCN(S(C)(=O)=O)CC1 [Compound 241]	0.05 to 0.25 µM
Cc1c(CN2CCC(Nc3ncnc4sc(CC(F)(F)F)cc34)CC2)ccc2c1cc(C#N)n2CC(C)N1CCN(S(=O)(=O)N(C)C)CC1 (stereo not drawn) [Compound 87]	0.05 to 0.25 µM
Cc1c(CN2CCC(Nc3ncnc4sc(CC(F)(F)F)cc34)CC2)ccc2c1cc(C#N)n2C[C@@H](C)N1CCN(S(C)(=O)=O)[C@@H](C)C1 [Compound 17]	0.05 to 0.25 µM
Cc1c(CN2CCC(Nc3ncnc4sc(CC(F)(F)F)cc34)CC2)ccc2c1cc(C#N)n2CCN1C[C@H](C)N(S(C)(=O)=O)[C@@H](C)C1 [Compound 49]	0.05 to 0.25 µM
Cc1c(CN2CCC(Nc3ncnc4sc(CC(F)(F)F)cc34)CC2)ccc2c1cc(C#N)n2CC(C)N1CCN(S(C)(=O)=O)C(C)C1 (stereo not drawn) [Compound 11]	0.05 to 0.25 µM
Cc1nc(NC2CCN(Cc3ccc4c(cc(C#N)n4C[C@H](C)N4CCN(S(C)(=O)=O)CC4)c3C)CC2)c2c(C)c(CC(F)(F)F)sc2n1 [Compound 242]	> 1 µM
Cc1c(CN2CCC(Nc3ncnc4sc(CC(F)(F)F)cc34)CC2)ccc2c1cc(C#N)n2CC(CO)N1CCN(S(C)(=O)=O)CC1 (stereo not drawn) [Compound 62]	> 1 µM
CNc1nc(NC2CCN(Cc3ccc4c(cc(C#N)n4C[C@H](C)N4CCC(F)(F)CC4)c3C)CC2)c2cc(CC(F)(F)F)sc2n1 [Compound 195]	0.05 to 0.25 µM
Cc1c(CN2CCC(Nc3ncnc4sc(CC(F)(F)F)cc34)CC2)ccc2c1cc(C#N)n2CC(C(C)C)N1CCN(S(C)(=O)=O)CC1 (stereo not drawn) [Compound 24]	0.02 to 1 µM
CNc1nc(NC2CCN(Cc3ccc4c(cc(C#N)n4C[C@H](C)N4CCC(S(=O)(=O)NC)CC4)c3C)CC2)c2cc(CC(F)(F)F)sc2n1 [Compound 185]	0.05 to 0.25 µM
Cc1nc(NC2CCN(Cc3ccc4c(cc(C#N)n4C[C@H](C)N4CCC(S(C)(=O)=O)CC4)c3C)CC2)c2cc(C(O)C(F)(F)F)sc2n1 (stereo partly drawn) [Compound 280]	0.05 to 0.25 µM
CNC(=O)N1CCN([C@@H](C)Cn2c(C#N)cc3c(C)c(CN4CCC(Nc5ncnc6sc(CC(F)(F)F)cc56)CC4)ccc32)CC1 [Compound 68]	0.05 to 0.25 µM
CC(=O)OCc1nc(NC2CCN(Cc3ccc4c(cc(C#N)n4C[C@H](C)N4CCN(S(C)(=O)=O)CC4)c3C)CC2)c2cc(CC(F)(F)F)sc2n1 [Compound 245]	0.05 to 0.25 µM
Cc1c(CN2CCC(Nc3ncnc4sc(CC(F)(F)F)cc34)CC2)ccc2c1cc(C#N)n2CCN1CC2CN(S(C)(=O)=O)CC2C1 (stereo not drawn) [Compound 55]	0.02 to 1 µM
Cc1c(CN2CCC(Nc3ncnc4sc(CC(F)(F)F)cc34)CC2)ccc2c1cc(C#N)n2CCN1CCC2(CC1)CN(S(C)(=O)=O)C2 [Compound 54]	0.05 to 0.25 µM
Cc1c(CN2CCC(Nc3ncnc4sc(CC(F)(F)F)cc34)CC2)ccc2c1cc(C#N)n2CCc1ccc(NC(=O)CC#N)cc1 [Compound 1003]	0.05 to 0.25 µM
Cc1c(CN2CCC(Nc3nc(N)nc4sc(CC(F)(F)F)cc34)CC2)ccc2c1cc(C#N)n2C[C@H](C)N1C[C@@H](C)N(S(C)(=O)=O)[C@H](C)C1 [Compound 179]	0.05 to 0.25 µM
Cc1c(CN2CCC(Nc3ncnc4sc(CC(F)(F)F)cc34)CC2)ccc2c1cc(C#N)n2C[C@H](C)N1CCN(S(=O)(=O)C2CCC2)CC1 [Compound 127]	0.05 to 0.25 µM
Cc1c(CN2CCC(Nc3ncnc4sc(CC(F)(F)F)cc34)CC2)ccc2c1cc(C#N)n2C[C@H](C)N1CCN(S(=O)(=O)NCC(F)(F)F)CC1 [Compound 130]	0.05 to 0.25 µM
CNS(=O)(=O)N1CCN([C@H](C)Cn2c(C#N)cc3c(C)c(CN4CCC(Nc5ncnc6sc(CC(F)(F)F)cc56)CC4)ccc32)CC1 [Compound 66]	0.02 to 1 µM
C[C@@H](Cn1c(C#N)cc2cc(CN3CCC(Nc4ncnc5sc(CC(F)(F)F)cc45)CC3)c(O)cc21)N1CCN(S(C)(=O)=O)CC1 [Compound 160]	0.05 to 0.25 µM
Cc1c(CN2CCC(Nc3ncnc4sc(CC(F)(F)F)cc34)CC2)ccc2c1cc(C#N)n2CCN1CCC(NS(C)(=O)=O)CC1 [Compound 1000]	0.02 to 1 µM
Cc1c(CN2CCC(Nc3ncnc4sc(CC(F)(F)F)cc34)CC2)ccc2c1cc(C#N)n2C[C@@H](C)N1CCN(C=O)CC1 [Compound 67]	0.02 to 1 µM

Now from value to molecule:

IC50	SMILES
< 0.05 µM	CNc1nc(NC2CCN(Cc3ccc4c(cc(C#N)n4CCN4CCNC(=O)C4)c3C)CC2)c2cc(CC(F)(F)F)sc2n1 [Compound 1025]
< 0.05 µM	CNC(=O)CN1CCN([C@@H](C)Cn2c(C#N)cc3c(C)c(CN4CCC(Nc5nc(NC)nc6sc(CC(F)(F)F)cc56)CC4)ccc32)CC1 [Compound 189]
< 0.05 µM	C=CC(=O)Nc1ccc(C(C)Cn2c(C#N)cc3c(C)c(CN4CCC(Nc5ncnc6sc(CC(F)(F)F)cc56)CC4)ccc32)cn1 (stereo not drawn) [Compound 93]
0.05 to 0.25 µM	Cc1c(CN2CCC(Nc3nc(N)nc4sc(CC(F)(F)F)cc34)CC2)ccc2c1cc(C#N)n2C[C@@H](C)N1CCN(S(C)(=O)=O)CC1 [Compound 167]
< 0.05 µM	Cc1c(CN2CCC(Nc3ncnc4sc(CC(F)(F)F)cc34)CC2)ccc2c1cc(C#N)n2C[C@H](C)N1CCN(S(=O)(=O)C2CC2)CC1 [Compound 115]
< 0.05 µM	CCCNS(=O)(=O)N1CCN([C@@H](C)Cn2c(C#N)cc3c(C)c(CN4CCC(Nc5ncnc6sc(CC(F)(F)F)cc56)CC4)ccc32)CC1 [Compound 141]
0.05 to 0.25 µM	Cc1c(CN2CCC(Nc3ncnc4sc(CC(F)(F)F)cc34)CC2)ccc2c1cc(C#N)n2C[C@@H](C)N1C[C@@H](C)N(S(C)(=O)=O)[C@H](C)C1 [Compound 91]
< 0.05 µM	CNc1nc(NC2CCN(Cc3ccc4c(cc(C#N)n4C[C@H](C)N4CCN(C)CC4=O)c3C)CC2)c2cc(CC(F)(F)F)sc2n1 [Compound 226]
< 0.05 µM	CNc1nc(NC2CCN(Cc3ccc4c(cc(C#N)n4C[C@H](C)N4CCNCC4=O)c3C)CC2)c2cc(CC(F)(F)F)sc2n1 [Compound 225]
< 0.05 µM	Cc1c(CN2CCC(Nc3ncnc4sc(CC(F)(F)F)cc34)CC2)ccc2c1cc(C#N)n2CC(C)N1CCN(C=O)CC1 (stereo not drawn) [Compound 6]
< 0.05 µM	CNC(=O)CC1CCN([C@@H](C)Cn2c(C#N)cc3c(C)c(CN4CCC(Nc5nc(C)nc6sc(CC(F)(F)F)cc56)CC4)ccc32)CC1 [Compound 220]
< 0.05 µM	Cc1c(CN2CCC(Nc3ncnc4sc(CC(F)(F)F)cc34)CC2)ccc2c1cc(C#N)n2CCNC(=O)COCCOCCNC(=O)OC(C)(C)C [Compound 1027]
< 0.05 µM	CNc1nc(NC2CCN(Cc3ccc4c(cc(C#N)n4C[C@H](C)N4CCN(S(=O)(=O)C(C)C)CC4)c3C)CC2)c2cc(CC(F)(F)F)sc2n1 [Compound 251]
< 0.05 µM	CNS(=O)(=O)C1CCN([C@@H](C)Cn2c(C#N)cc3c(C)c(CN4CCC(Nc5nc(C)nc6sc(CC(F)(F)F)cc56)CC4)ccc32)CC1 [Compound 186]
< 0.05 µM	Cc1c(CN2CCC(Nc3nc(N)nc4sc(CC(F)(F)F)cc34)CC2)ccc2c1cc(C#N)n2C[C@H](C)N1CCN(S(=O)(=O)CCO)CC1 [Compound 187]
< 0.05 µM	CNc1nc(NC2CCN(Cc3ccc4c(cc(C#N)n4CCN4CCN(S(C)(=O)=O)CC4)c3C)CC2)c2cc(CC(F)(F)F)sc2n1 [Compound 1022]
< 0.05 µM	CNc1nc(NC2CCN(Cc3ccc4c(cc(C#N)n4C[C@H](C)N4CCN(S(C)(=O)=O)C(CO)C4)c3C)CC2)c2cc(CC(F)(F)F)sc2n1 (stereo partly drawn) [Compound 233]
< 0.05 µM	Cc1nc(NC2CCN(Cc3ccc4c(cc(C#N)n4C[C@H](C)N4CCC(CC(=O)N(C)C)CC4)c3C)CC2)c2cc(CC(F)(F)F)sc2n1 [Compound 221]
< 0.05 µM	CNc1nc(NC2CCN(Cc3ccc4c(cc(C#N)n4C[C@H](C)N4CCN(C)C(=O)C4)c3C)CC2)c2cc(CC(F)(F)F)sc2n1 [Compound 243]
< 0.05 µM	Cc1c(CN2CCC(Nc3ncnc4sc(CC(F)(F)F)cc34)CC2)ccc2c1cc(C#N)n2C[C@H](C)N1CCN(S(=O)(=O)NC2CC2)CC1 [Compound 73]
< 0.05 µM	CNc1nc(NC2CCN(Cc3ccc4c(cc(C#N)n4C[C@H](C)N4CCC(NS(C)(=O)=O)CC4)c3C)CC2)c2cc(CC(F)(F)F)sc2n1 [Compound 249]
< 0.05 µM	Cc1nc(NC2CCN(Cc3ccc4c(cc(C#N)n4CCN4CCC(S(C)(=O)=O)CC4)c3C)CC2)c2cc(CC(F)(F)F)sc2n1 [Compound 1021]
< 0.05 µM	CNc1nc(NC2CCN(Cc3ccc4c(cc(C#N)n4C[C@H](C)N4CCN(S(=O)(=O)CC5CC5)CC4)c3C)CC2)c2cc(CC(F)(F)F)sc2n1 [Compound 250]
< 0.05 µM	Cc1c(CN2CCC(Nc3nc(F)nc4sc(CC(F)(F)F)cc34)CC2)ccc2c1cc(C#N)n2C[C@H](C)N1CCN(S(C)(=O)=O)CC1 [Compound 222]
< 0.05 µM	CNS(=O)(=O)C1CCN([C@@H](C)Cn2c(C#N)cc3c(C)c(CN4CCC(Nc5nc(N)nc6sc(CC(F)(F)F)cc56)CC4)ccc32)CC1 [Compound 184]
< 0.05 µM	Cc1c(CN2CCC(Nc3ncnc4sc(CC(F)(F)F)cc34)CC2)ccc2c1cc(C#N)n2C(C)CN1CCN(S(C)(=O)=O)CC1 (stereo not drawn) [Compound 27]
< 0.05 µM	CNc1nc(NC2CCN(Cc3ccc4c(cc(C#N)n4C[C@H](C)N4CCOC(C(=O)N(C)C)C4)c3C)CC2)c2cc(CC(F)(F)F)sc2n1 (stereo partly drawn) [Compound 215]

— patent publication US11673898B2, “Substituted inhibitors of menin-MLL and methods of use” (Kura Oncology, Inc., priority 2016, dated 2023)
